Laboratory results reported in publication PMC5594551, “Heterogeneous drug penetrance of veliparib and carboplatin measured in triple negative breast tumors” (Breast Cancer Research : BCR, 2017).
Where two headings read alike, the source gives them in different places.

What was measured:
[1] = Carboplatin plasma PK in patients of phase 1 trial (three-compartment model); type: in vivo
Procedure: Carboplatin and platinum adducts were determined in a limited number of blood samples from a previously presented phase 1 clinical trial (NCT02358200). […] In the case of grade 3 or grade 4 toxicity, carboplatin and/or talazoparib doses were held until below grade 1 and resumed at a lower dose level. Blood samples were obtained from a limited number of patients during cycle 1 day 1 (prior to talazoparib dosing) and cycle 2 day 1 pre-dose and up to 24 h post dose, and PBMCs were derived at day 15 post dose, DNA was extracted as described in Additional file 1d and platinum adducts were quantified by ICP-MS (Additional file 1b).
A three-compartment model best described carboplatin in plasma and no variability between patients was observed (Additional file 1: Figure S12 and Table S2). In further analyses, we assumed that the carboplatin plasma PK profile in the other 16 patients was similar to that the first 3 patients: in these patients glomerular filtration rate (GFR) ranged from 60 to 151 mL/min and BSA values ranged from 1.58 to 2.0 m^2. […] [34].
Supplementary Table 2: PK patients estimates carboplatin and platinum adducts Structural model PK Estimat RS
Inter-individual variability on Platinum adduct formation (RPT) 317% proportional residual error plasma carboplatin 28% 26 […]
proportional residual error adduct formation 110% 6%
Platinum adduct formation:
CL=clearance, V=volume of distribution, KA= rate of absorption, RPT= ratio of carboplatin adduct formation, KPT= rate of carboplatin adduct formation, gBRCA = germline BRCA carrier […]
(also on this page, place not known: ( )adductsC−×× plasmaCRPT KPT=dt dCadducts)
(1 picture or pasted object on this page, not shown here)

[2] = design: method as in PMID 19364967; conditions: ref [46]; cited from earlier work
[3] = system: PARP; conditions: read-out: PARP trapping IC50; cited from earlier work
[4] = Veliparib quantified by LC-MS in plasma, TNBC xenograft tumor, muscle and liver of mice; type: in vivo, beige SCID mice; conditions: for Median conc. (RSE %) / concentration at 3 h: LC-MS; for concentration at 3 h: beige SCID (Fox Chase), mouse, read-out: Median conc. (RSE %)
Procedure: Forty-one beige DF mice with severe combined immunodeficiency (SCID) (Fox Chase, strain R035948:1) were implanted with 10^6 MDA-MB-231 (N = 10), HCC70 N = 21) or MDA-MB-436 (N = 10) TNBC cells obtained from the ATCC bilaterally in the mammary fat pads (Fig. 1). When the TNBC xenograft tissue size exceeded 200 mm^3, the mice were randomized across the treatment cohorts. Animals were randomized into veliparib low dose (20 mg/kg), veliparib high dose (60 mg/kg) or placebo + C, introduced via oral gavage three times daily for 3 days (all but the two DCE-MRI study mice). Carboplatin at 60 mg/kg was administered intravenously on day 1 and day 2. Blood samples (50 μL) were obtained at day 2 in ethylenediaminetetraacetic acid (EDTA) containing vials at 0.6, 3 and 5 h after veliparib and carboplatin dose in 15 mice (all xenograft models, Fig. 1). The procedures were approved by the Institutional Animal (IACUC AN092211-01D).
Thirty-nine mice were euthanized approximately 3 h after the last dose of veliparib and 24 h after the last dose of carboplatin; two mice used in the DCE-MRI pilot were euthanized 1.5 h after single-dose administration of veliparib and carboplatin (Fig. 1). Bilateral xenograft tumors and liver and muscle (quadriceps) tissues were harvested. Tissues were cut into three pieces and either embedded in optimum cutting temperature (OCT) formulation or were directly snap frozen in liquid-nitrogen-cooled isopentane and stored at − 80 °C until analysis. […] A separate fresh-frozen portion of each tissue per animal was ground for quantification of veliparib and carboplatin by LC-MS. Method development and details of the techniques are described in Additional file 1a-c. […]
c) Technical aspects of the LC-MS method development.
Plasma samples (50 μl ) were prepared using protein precipitation with acetonitrile. Small tumor samples (average 44 mg) were pulverized using Biopulverizer R (Biospec Bartlesville, OK, USA). Volume and weight of the pulverized tumor was determined. Veliparib was then extracted using cell lysis buffer (Cell Signaling Technology, Danvers, MA,USA), complemented with Halt Protease & Phosphatase (ThermoScientific, Atlanta, GA,USA). Protein precipitation of the tissue lysates was performed with acetonitrile. Oxaliplatin (Tzchem, Framingham, MA,USA) and iniparib (Sigma-Aldrich, Milwaukee, USA) were used as internal standards.
Veliparib/carboplatin quantification:
Carboplatin and veliparib were measured using LC-MS (Applied Biosystem Systems 3200 LC-MS/MS, Toronto, Canada), with electrospray ionization (ESI), using a Xterra® MS C18 3.5 µm column (Waters, Milford, MA, USA). The mobile phase contained 50:50 methanol and water with 0.1%, formic acid.
Concentration of veliparib in tissues were calculated in mg/g and transferred to mg/L by estimating the average density of the livers, muscles and tumors.
Figure S9: Example graph of mass spectrum of veliparib and carboplatin and the internal standards in plasma […]
Method development/validation
The limit of quantification was 15 ng/ml for veliparib and 156 ng/ml for carboplatin. The calibration curves […]
Figure S10) Repetition quantification from two tissue sections of the same animal to show consistence of results when repeating veliparib extraction (performed by LCMS).

[5] = system: HCC70; conditions: ref [23]; cited from earlier work

N.N.O=C([O-])C1(C(=O)[O-])CCC1.[Pt+2] [carboplatin]
Half-life carboplatin in plasma [1]: 2.1 h | Q [1]: 0.324 L/h | Q2 [1]: 16.7 L/h | V1 [1]: 0.935 L | V2 [1]: 52.8 L | CLday15 ([1]; day 15): 5.33 L/h | CLday1 ([1]; single agent day 1): 5.2 L/h

C[C@]1(c2nc3c(C(N)=O)cccc3[nH]2)CCCN1 [veliparib]
Renal clearance as share of elimination [2]: 70% | IC50 [3]: 57.4 µM | Xenograft tissues below the limit of detection by LC-MS ([4]; 20 mg/kg dose): 42% | Median conc. (RSE %) ([4]; HCC70 xenograft tissue, 60 mg/kg): 0.43 (16) mg/L | Median conc. (RSE %) ([4]; MDA-MB-231 xenograft tissue, 60 mg/kg): 0.27 (18) mg/L | Median conc. (RSE %) ([4]; MDA-MB-436 xenograft tissue, 60 mg/kg): 0.32 (26) mg/L | Median conc. (RSE %) ([4]; TNBC xenograft tissue (all cell lines), 20 mg/kg, 3 h after last dose): 0.12 (31) mg/L | Median conc. (RSE %) ([4]; TNBC xenograft tissue (all cell lines), 60 mg/kg, 3 h after last dose, 60 mg/kg): 0.36 (12) mg/L | concentration at 3 h ([4]; oral, liver, 60 mg/kg, 3 h after last dose): 1770 ng/mL | concentration at 3 h ([4]; oral, plasma, veliparib 60 mg/kg three times daily, 3 h post dose): 860 ng/mL | concentration at 3 h ([4]; tumor (HCC70 xenograft), oral, HCC70 xenograft tissue, 20 mg/kg): 130 ng/mL | concentration at 3 h ([4]; tumor (HCC70 xenograft), oral, HCC70 xenograft tissue, 60 mg/kg): 430 ng/mL | concentration at 3 h ([4]; tumor (MDA-MB-231 xenograft), oral, MDA-MB-231 xenograft tissue, 20 mg/kg): 10 ng/mL | concentration at 3 h ([4]; tumor (MDA-MB-231 xenograft), oral, MDA-MB-231 xenograft tissue, 60 mg/kg): 270 ng/mL | concentration at 3 h ([4]; tumor (MDA-MB-436 xenograft), oral, MDA-MB-436 xenograft tissue, 20 mg/kg): 50 ng/mL | concentration at 3 h ([4]; tumor (MDA-MB-436 xenograft), oral, MDA-MB-436 xenograft tissue, 60 mg/kg): 320 ng/mL | concentration at 3 h ([4]; tumor (TNBC xenograft, oral), TNBC xenograft tissue (all cell lines), 60 mg/kg, 3 h after last dose): 360 ng/mL | Median conc. (RSE %) ([4]; liver, 20 mg/kg, 3 h after last dose): 0.47 (20) mg/L | Median conc. (RSE %) ([4]; liver, 60 mg/kg, 3 h after last dose, 60 mg/kg): 1.77 (14) mg/L | Median conc. (RSE %) ([4]; muscle, 20 mg/kg, 3 h after last dose): 0.12 (70) mg/L | Median conc. (RSE %) ([4]; muscle, 60 mg/kg, 3 h after last dose): 0.47 (47) mg/L | Median conc. (RSE %) ([4]; plasma, veliparib 20 mg/kg three times daily, 3 h post dose): 0.19 (10) mg/L | Median conc. (RSE %) ([4]; plasma, veliparib 60 mg/kg three times daily, 3 h post dose): 0.86 (11) mg/L | Sensitivity in vitro [5]: insensitive
